In one data set the test system is Survivin protein. In words: Tumour analysis: Survivin protein by Western blotting after intratumoural injection. The data set is classed as in vivo, Balb/cA-nu mice. To be noted: 25 mg/kg intratumoral, 6 times over 2 weeks, sampling 24 hours after last dose, versus saline. As to the method: (§1) Model: PC-3 human prostate cancer cells (ECACC) are mixed with Matrigel and injected s.c. into both flanks of female Balb/cA-nu mice on Day 0.
(§2) Administration: Oligonucleotides i.p. (see FIG. 8) or intratumoural (see FIG. 9), Taxol i.v., all according to schedule
cDNA synthesis: First strand synthesis was performed using OmniScript Reverse Transcriptase kit according to the manufacturer's instructions (Qiagen). […] Protein levels were analysed on individual tumours by western blotting (see FIG. 9). Real time PCR analysis: To determine the relative Survivin mRNA level treated and untreated tumours, the generated cDNA was used in quantitative PCR analysis using an iCycler from BioRad. The cDNA was diluted 5-fold and 8 μl was mixed with 52 μl Taqman probe master mix containing 30 μl Platinum Quantitative PCR SuperMix UDG 2×PCR master mix (Invitrogen), 3 μl 20× Taqman probe and primer mix (forward primer: 5′-[…]-3′ (SEQ ID NO. 29), final 0.9 μM. Reverse primer: 5′-[…]-3′ (SEQ ID NO. 30), final 0.6 μM and taqman probe: FAM-5′-[…]-TAMRA-3′ (SEQ ID NO. 31), final 0.1 μM) and 19 μl H2O. […] To normalize any variance in sample preparation, the endogenous GAPDH mRNA was quantified using a pre-developed Taqman assay reagent from Applied Biosystems (4310884E) according to manufacture's instructions. […] Total protein concentrations were measured using a BCA protein assay kit (Pierce). […]
For orientation: A western blot detects proteins with antibodies after separation by electrophoresis.

In data set [1] the test system is PC-3 human prostate cancer cells. Kind of data set: PC3 xenograft tumour growth inhibition in nude mice. The data set is classed as in vivo, Balb/cA-nu mice. To be noted: combined with Taxol, dose schedules A and B, after 27 days, versus single agent treatment or saline. As to the method: as §1
Dosing: Saline solution of SEQ ID NO. 2 according to schedule, 2 mg/ml working solution, dosing volume 10 ml/kg; Taxol was used in the clinical formulation. The animals were dosed according to the average group weight on Day 0.
as §2
Observations: Mortality (daily), body weight (twice per week),
Tumour volume: During the experiment, tumour volume is measured twice per week and calculated according to the formula (L×D^2×0.5), where L represents the largest diameter and D the tumour diameter perpendicular to L (mm).
Antitumour activity: Mean tumour weight of treated tumours will be compared with control group.
End of study: The animals will be sacrificed by cervical dislocation. Tumours, livers and spleens will be weighed.

Oligonucleotides are written 5' to 3', each unit as a sugar letter and its base; * is a phosphorothioate linkage, no mark a phosphodiester; rarer units and linkages stand in square brackets, end groups in braces. Plain capitals give the bases only. l = locked nucleic acid (LNA); [5mC] = 5-methylcytosine; d = 2'-deoxy (DNA)

On to “5′-^MeCsTs^MeCsAsastscscsastsgsgs^MeCsAsGsc-3′ (l[5mC]*lT*l[5mC]*lA*dA*dT*dC*dC*dA*dT*dG*dG*l[5mC]*lA*lG*dC) [SEQ ID NO. 2]”, for which, in the data set on Survivin protein, the “Survivin protein level in tumours” value is “reduced levels of both mRNA and Survivin protein”. Moreover, in data set [1], the Tumour weight result is “Tumour weight reduction”.

For the origin of these results see patent US8173428B2, “LNA oligonucleotides and the treatment of cancer” (Santaris Pharma A/S, priority 2004, dated 2012).
